From patent US8497385B2, “Bryostatin analogues, synthetic methods and uses” (The Board of Trustees of the Leland Stanford Junior …, priority 2007, dated 2013)

Tests used:
Assay type in all cases: cell-based, human
CCRF-CEM = experiment: NCI growth inhibition, CCRF-CEM (Leukemia); details: Leukemia
HL-60(TB) = test system: HL-60(TB)
K-562 = experiment: NCI growth inhibition, K-562 (Leukemia); details: K-562, Leukemia
MOLT-4 = experiment: NCI growth inhibition, MOLT-4 (Leukemia); details: MOLT-4, Leukemia
RPMI-8226 = experiment: NCI growth inhibition, RPMI-8226 (Leukemia); details: RPMI-8226, Leukemia
SR = experiment: NCI growth inhibition, SR (Leukemia); details: Leukemia
A549/ATCC = experiment: NCI growth inhibition, A549/ATCC (NSC Lung); details: NSC Lung
EKVX = experiment: NCI growth inhibition, EKVX (NSC Lung); details: NSC Lung
HOP-62 = experiment: NCI growth inhibition, HOP-62 (NSC Lung)
HOP-92 = experiment: NCI growth inhibition, HOP-92 (NSC Lung); details: HOP-92, NSC Lung
NCI-H226 = experiment: NCI growth inhibition, NCI-H226 (NSC Lung)
NCI-H23 = experiment: NCI growth inhibition, NCI-H23 (NSC Lung)
NCI-H322M = experiment: NCI growth inhibition, NCI-H322M (NSC Lung); details: NSC Lung
NCI-H460 = experiment: NCI growth inhibition, NCI-H460 (NSC Lung); details: NCI-H460, NSC Lung
NCI-H522 = experiment: NCI growth inhibition, NCI-H522 (NSC Lung)
COLO 205 = experiment: NCI growth inhibition, COLO 205 (Colon); details: COLO 205, Colon
HCC-2998 = experiment: NCI growth inhibition, HCC-2998 (Colon); details: HCC-2998, Colon
HCT-116 = experiment: NCI growth inhibition, HCT-116 (Colon); details: HCT-116, Colon
HCT-15 = experiment: NCI growth inhibition, HCT-15 (Colon)
HT29 = experiment: NCI growth inhibition, HT29 (Colon); details: HT29, Colon
KM12 = experiment: NCI growth inhibition, KM12 (Colon); details: KM12, Colon
SW-620 = experiment: NCI growth inhibition, SW-620 (Colon); details: SW-620, Colon
SF-268 = experiment: NCI growth inhibition, SF-268 (CNS); details: SF-268, CNS
SF-295 = experiment: NCI growth inhibition, SF-295 (CNS); details: SF-295, CNS
SF-539 = experiment: NCI growth inhibition, SF-539 (CNS); details: SF-539, CNS
SNB-19 = experiment: NCI growth inhibition, SNB-19 (CNS); details: SNB-19, CNS
SNB-75 = experiment: NCI growth inhibition, SNB-75 (CNS); details: SNB-75, CNS
U251 = experiment: NCI growth inhibition, U251 (CNS); details: U251, CNS
PC-3 = experiment: NCI growth inhibition, PC-3 (Prostate); details: PC-3, Prostate
DU-145 = experiment: NCI growth inhibition, DU-145 (Prostate); details: DU-145, Prostate
LOX IMVI = experiment: NCI growth inhibition, LOX IMVI (Melanoma); details: Melanoma
MALME-3M = experiment: NCI growth inhibition, MALME-3M (Melanoma)
MI4 = experiment: NCI growth inhibition, MI4 (Melanoma); details: MI4, Melanoma
SK-MEL-2 = experiment: NCI growth inhibition, SK-MEL-2 (Melanoma); details: SK-MEL-2, Melanoma
SK-MEL-28 = experiment: NCI growth inhibition, SK-MEL-28 (Melanoma); details: SK-MEL-28, Melanoma
SK-MEL-5 = experiment: NCI growth inhibition, SK-MEL-5 (Melanoma); details: SK-MEL-5, Melanoma
UACC-257 = experiment: NCI growth inhibition, UACC-257 (Melanoma); details: UACC-257, Melanoma
UACC-62 = experiment: NCI growth inhibition, UACC-62 (Melanoma); details: UACC-62, Melanoma
IGROVI = experiment: NCI growth inhibition, IGROVI (Ovarian); details: Ovarian
OVCAR-3 = experiment: NCI growth inhibition, OVCAR-3 (Ovarian); details: OVCAR-3, Ovarian
OVCAR-4 = experiment: NCI growth inhibition, OVCAR-4 (Ovarian); details: OVCAR-4, Ovarian
OVCAR-5 = experiment: NCI growth inhibition, OVCAR-5 (Ovarian); details: OVCAR-5, Ovarian
OVCAR-8 = experiment: NCI growth inhibition, OVCAR-8 (Ovarian); details: OVCAR-8, Ovarian
SK-OV-3 = experiment: NCI growth inhibition, SK-OV-3 (Ovarian); details: SK-OV-3, Ovarian
786-0 = experiment: NCI growth inhibition, 786-0 (Renal); details: 786-0, Renal
A498 = experiment: NCI growth inhibition, A498 (Renal); details: A498, Renal
ACHN = experiment: NCI growth inhibition, ACHN (Renal); details: Renal
CAKI-1 = experiment: NCI growth inhibition, CAKI-1 (Renal); details: CAKI-1, Renal
RXF-393 = experiment: NCI growth inhibition, RXF-393 (Renal)
SN12C = experiment: NCI growth inhibition, SN12C (Renal); details: Renal
TK-10 = experiment: NCI growth inhibition, TK-10 (Renal); details: TK-10, Renal
UO-31 = experiment: NCI growth inhibition, UO-31 (Renal); details: UO-31, Renal
MCF7 = experiment: NCI growth inhibition, MCF7 (Breast); details: MCF7, Breast
NCI/ADR-RES = experiment: NCI growth inhibition, NCI/ADR-RES (Breast)
MDA-MB-231/ATCC = experiment: NCI growth inhibition, MDA-MB-231/ATCC (Breast); details: Breast
MDA-MB-435 = experiment: NCI growth inhibition, MDA-MB-435 (Breast); details: MDA-MB-435, Breast
MDA-N = experiment: NCI growth inhibition, MDA-N (Breast)
BT-549 = experiment: NCI growth inhibition, BT-549 (Breast); details: BT-549, Breast
T-47D = experiment: NCI growth inhibition, T-47D (Breast); details: Breast
HS 578T = experiment: NCI growth inhibition, HS 578T (Breast); details: Breast

## CCC/C=C/C=C/C(=O)O[C@H]1/C(=C/C(=O)OC)C[C@H]2C[C@H]([C@@H](C)O)OC(=O)C[C@H](O)C[C@@H]3C[C@H](OC(C)=O)C(C)(C)[C@](O)(C[C@@H]4C/C(=C/C(=O)OC)C[C@H](/C=C/C(C)(C)[C@]1(O)O2)O4)O3 [Bryo-1, Bryostatin-1, reference compound]
CCRF-CEM
  GI50: −5.30 log of molar concentration
HL-60(TB)
  GI50: −5.70 log of molar concentration
K-562
  GI50: −5.40 log of molar concentration
MOLT-4
  GI50: −5.50 log of molar concentration
RPMI-8226
  GI50: >−5 log of molar concentration
SR
  GI50: >−5 log of molar concentration
A549/ATCC
  GI50: −5.20 log of molar concentration
EKVX
  GI50: −5.30 log of molar concentration
HOP-62
  GI50: >−5 log of molar concentration
HOP-92
  GI50: −5.30 log of molar concentration
NCI-H226
  GI50: >−5 log of molar concentration
NCI-H23
  GI50: >−5 log of molar concentration
NCI-H322M
  GI50: −6.00 log of molar concentration
NCI-H460
  GI50: −5.60 log of molar concentration
NCI-H522
  GI50: >−5 log of molar concentration
COLO 205
  GI50: −5.40 log of molar concentration
HCC-2998
  GI50: −5.30 log of molar concentration
HCT-116
  GI50: −5.30 log of molar concentration
HCT-15
  GI50: >−5 log of molar concentration
HT29
  GI50: −5.30 log of molar concentration
KM12
  GI50: −5.20 log of molar concentration
SW-620
  GI50: −5.50 log of molar concentration
SF-268
  GI50: −5.10 log of molar concentration
SF-295
  GI50: −5.20 log of molar concentration
SF-539
  GI50: >−5 log of molar concentration
SNB-19
  GI50: >−5 log of molar concentration
SNB-75
  GI50: −5.50 log of molar concentration
U251
  GI50: −5.10 log of molar concentration
PC-3
  GI50: −5.30 log of molar concentration
DU-145
  GI50: >−5 log of molar concentration
LOX IMVI
  GI50: −5.10 log of molar concentration
MALME-3M
  GI50: −5.20 log of molar concentration
MI4
  GI50: >−5 log of molar concentration
SK-MEL-2
  GI50: −5.20 log of molar concentration
SK-MEL-28
  GI50: −5.10 log of molar concentration
SK-MEL-5
  GI50: −5.70 log of molar concentration
UACC-257
  GI50: −5.10 log of molar concentration
UACC-62
  GI50: −5.30 log of molar concentration
IGROVI
  GI50: −5.30 log of molar concentration
OVCAR-3
  GI50: −5.10 log of molar concentration
OVCAR-4
  GI50: −5.50 log of molar concentration
OVCAR-5
  GI50: >−5 log of molar concentration
OVCAR-8
  GI50: −5.10 log of molar concentration
SK-OV-3
  GI50: −5.10 log of molar concentration
786-0
  GI50: −5.20 log of molar concentration
A498
  GI50: >−5 log of molar concentration
ACHN
  GI50: −5.50 log of molar concentration
CAKI-1
  GI50: −5.40 log of molar concentration
RXF-393
  GI50: −5.30 log of molar concentration
SN12C
  GI50: −5.10 log of molar concentration
TK-10
  GI50: >−5 log of molar concentration
UO-31
  GI50: −5.60 log of molar concentration
MCF7
  GI50: −5.20 log of molar concentration
NCI/ADR-RES
  GI50: >−5 log of molar concentration
MDA-MB-231/ATCC
  GI50: −5.20 log of molar concentration
MDA-MB-435
  GI50: −5.10 log of molar concentration
MDA-N
  GI50: −5.10 log of molar concentration
BT-549
  GI50: −5.10 log of molar concentration
T-47D
  GI50: −5.20 log of molar concentration
HS 578T
  GI50: −5.2 log of molar concentration
